Source: US20230210848A1, “CORONAVIRUS INFECTION THERAPEUTIC AGENT FORMED THROUGH COMBINATION OF PYRAZINE DERIVATIVE AND ANOTHER CORONAVIRUS INFECTION THERAPEUTIC DRUG” (priority 2020, published 2023)

Test system: HCoV-OC43
Assay: Test Example 2: CPE inhibition in HCoV-OC43 infected BHK-21 cells, single or combination use
Assay type: cell-based, Human coronavirus (HCoV-OC43)
[1] = Betacoronavirus 1, OC43, BHK-21, read-out: CPE inhibition rate

Row | Compound | CPE inhibition rate (single use of 1000 μM of T-705, BHK-21 cells) | inhibition at 0.1 µM [1] | inhibition at 0.3 µM [1]
1 | NC(=O)c1nc(F)cnc1O [T-705, favipiravir] | 79% |  | 
2 | CCC(CC)COC(=O)[C@H](C)N[P@](=O)(OC[C@H]1O[C@@](C#N)(c2ccc3c(N)ncnn23)[C@H](O)[C@@H]1O)Oc1ccccc1 [remdesivir] |  | 51% | 80%
